Experimental data reported in patent US6593299B1, “Compositions and methods for controlling pests” (priority 1999, dated 2003).
Square brackets hold non-standard residues; d marks the D form. Ends that are not written are not given here. Peptide text beside a SMILES is read from it.

Assays:
Aedes aegypti larvae = assay: Feeding TMOF and analog peptides to mosquito larvae (LD50); type: in vivo; settings: newly hatched larvae on autoclaved yeast 1 mg/ml, peptide 0 to 5.0 mg/ml, microtiter plates, 7 days
Text: TMOF can traverse the gut epithelium, enter the hemolymph and bind a gut receptor (Borovsky, D. and F. Mahmood (1995) “Feeding the mosquito Aedes aegypti with TMOF and its analogs; effect on trypsin biosynthesis and egg development,” Regulatory Peptides 57:273-281.; Borovsky et al. (1994) “Characterization and localization of mosquito-gut receptors for trypsin modulating oostatic factor using complementary peptide immunochemistry”FASEB J. 8:350-355.). This characteristic permits the testing of TMOF and its analogues by feeding them to mosquito and other pest larvae. To find out if truncated TMOF peptides have an effect on larval growth and development, a series of peptides were synthesized and tested by feeding them to mosquito larvae at concentrations of 0 to 5.0 mg/ml (Table 2). Individual, newly hatched Aedes aegypti larvae were maintained in separate microtiter plate wells on a diet of autoclaved yeast (1 mg/ml). The diet was supplemented with TMOF peptides (Table 2). An identical number of larvae maintained on yeast served as a control. […] All control groups survived and larval growth and development was normal. Since larvae swallow only a small portion of the yeast particles adsorbed the peptides, it is assumed that approximately 1 to 20 ng are taken orally at the high concentrations.

TTLE biosynthesis = assay: Feeding TMOF analogs to fourth instar H. virescens: gut trypsin (TTLE) biosynthesis by [3H]DFP; type: in vivo, Heliothis virescens; parameters: Trypsin: unit not given here; settings: fourth instar larvae, 0.8 mg of analogue, 5 days; for Trypsin: guts incubated with [3H]DFP; for Inhibition (trypsin): versus control
[1] = system: fourth instar Heliothis virescens; assay: Feeding TMOF analogs to fourth instar H. virescens: larval weight; type: in vivo; settings: fourth instar larvae; for Weight Gain: 0.8 mg of analogue, 5 days; for Weight mg ± S.E.M. End: synthetic food and 0.8 mg of analogue, after 5 days; for Weight mg ± S.E.M. Start: weight before feeding (baseline)
Protocol: (§1) Several analogues were chosen and were fed to fourth instar Heliothis virescens for seven (7) days and to first instars for fourteen (14) days (Tables 3 and 4). In both cases a reduction in weight gain and trypsin inhibition was noted (Tables 3 and 4).
(§2) Individual first instar and fourth instar larvae of H. virescens were maintained in separate plastic cups and were fed on artificial diet blocks on which different concentrations of TMOF (0 to 1.6 mg) were adsorbed. Larvae were fed for 5 to 14 days and larval weight and trypsin activity were measured at the end of the experimental periods. […] When first instar larvae were fed for 14 days, an 18% and 26% reduction in weight was observed when analogues 15 and 16 were used (Table 4).
Fourth instar larvae were weighed and fed on synthetic food and 0.8 mg of TMOF analogues for 5 days. […]. Results are average of 3 to 10 experiments S.E.M.

[2] = system: first instar Heliothis virescens; assay: Feeding first instar H. virescens on TMOF analogs for 14 days; type: in vivo; parameters: Weight Reduction ± S.E.M.: concentration or dose not given beside the values; settings: first instar larvae fed 14 days; for Weight Reduction ± S.E.M.: versus control
Protocol: as §1, §2

YNPAP [9. YNPAP, YNPAP]
LD50 + S.E.M. (Aedes aegypti larvae): 0.55 ± 0.03 mM

YDLAP [13. YDLAP, YDLAP]
LD50 + S.E.M. (Aedes aegypti larvae): 0.6 ± 0.05 mM

C[C@H](N)C(=O)N[C@@H](CC(=O)O)C(=O)N1CCC[C@H]1C(=O)O [40. ADP, ADP] (H-Ala-Asp-Pro-OH; N-terminus and C-terminus assumed)
LD50 + S.E.M. (Aedes aegypti larvae): >6.6 mM

N[C@@H](Cc1ccc(O)cc1)C(=O)N[C@@H](CC(=O)O)C(=O)N1CCC[C@H]1C(=O)O [34. YDP, YDP] (H-Tyr-Asp-Pro-OH; N-terminus and C-terminus assumed)
Trypsin (TTLE biosynthesis): 2.1 ± 0.3 | Inhibition (trypsin) (TTLE biosynthesis): 19 ± 3.2% | LD50 + S.E.M. (Aedes aegypti larvae): 2.3 ± 0.4 mM | Weight Gain [1]: 186.3 mg | Weight mg ± S.E.M. End [1]: 223.4 ± 16 mg | Weight mg ± S.E.M. Start [1]: 37 ± 1.5 mg | Number of Dead Larvae [2]: 0 | Weight ± S.E.M. [2]: 157 ± 10 mg | Weight Reduction ± S.E.M. [2]: 4 ± 0.2%

N[C@@H](Cc1ccccc1)C(=O)N[C@@H](CO)C(=O)N1CCC[C@H]1C(=O)O [35. FSP, FSP] (H-Phe-Ser-Pro-OH; N-terminus and C-terminus assumed)
LD50 + S.E.M. (Aedes aegypti larvae): 2.3 ± 0.13 mM

C[C@H](NC(=O)[C@@H](N)Cc1ccc(O)cc1)C(=O)N1CCC[C@H]1C(=O)O [36. YAP, YAP] (H-Tyr-Ala-Pro-OH; N-terminus and C-terminus assumed)
LD50 + S.E.M. (Aedes aegypti larvae): 2.3 ± 0.5 mM

YSPAP [18. YSPAP, YSPAP]
Trypsin (TTLE biosynthesis): 2.0 ± 0.2 | Inhibition (trypsin) (TTLE biosynthesis): 19 ± 2% | LD50 + S.E.M. (Aedes aegypti larvae): 1.4 ± 0.03 mM | Weight Gain [1]: 151 mg | Weight mg ± S.E.M. End [1]: 188 ± 10.6 mg | Weight mg ± S.E.M. Start [1]: 30.6 ± 1.2 mg | Number of Dead Larvae [2]: 0 | Weight ± S.E.M. [2]: 168 ± 11 mg | Weight Reduction ± S.E.M. [2]: 0%

N[C@@H](Cc1ccccc1)C(=O)N[C@@H](CC(=O)O)C(=O)N1CCC[C@H]1C(=O)O [33. FDP, FDP] (H-Phe-Asp-Pro-OH; N-terminus and C-terminus assumed)
LD50 + S.E.M. (Aedes aegypti larvae): 1.98 ± 0.6 mM

N[C@@H](Cc1ccc(O)cc1)C(=O)N[C@@H](CO)C(=O)N[C@@H](Cc1ccccc1)C(=O)O [30. YSF, YSF] (H-Tyr-Ser-Phe-OH; N-terminus and C-terminus assumed)
LD50 + S.E.M. (Aedes aegypti larvae): 1.08 ± 0.12 mM

YAPAP [8. YAPAP, YAPAP]
LD50 + S.E.M. (Aedes aegypti larvae): 0.54 ± 0.13 mM

FDPAP [5. FDPAP, FDPAP]
LD50 + S.E.M. (Aedes aegypti larvae): 0.37 ± 0.15 mM

YDPAF [3. YDPAF, YDPAF]
LD50 + S.E.M. (Aedes aegypti larvae): 0.33 ± 0.2 mM

YDPAP [12. YDPAP, YDPAP, reference compound]
LD50 + S.E.M. (Aedes aegypti larvae): 0.64 ± 0.03 mM

N[C@@H](CC(=O)O)C(=O)N[C@@H](Cc1ccc(O)cc1)C(=O)O [42. DY, DY] (H-Asp-Tyr-OH; N-terminus and C-terminus assumed)
LD50 + S.E.M. (Aedes aegypti larvae): 3.0 ± 0.8 mM

YDPAL [7. YDPAL, YDPAL]
LD50 + S.E.M. (Aedes aegypti larvae): 0.52 ± 0.03 mM

C[C@H](NC(=O)[C@@H]1CCCN1C(=O)[C@@H](CC(=O)O)NC(=O)[C@@H](N)Cc1ccc(O)cc1)C(=O)N1CCC[C@H]1C(=O)O [17. Y(D)DPAP, Y(D)DPAP] (H-Y[dD]PAP-OH; N-terminus and C-terminus assumed)
Trypsin (TTLE biosynthesis): 2.1 ± 0.2 | Inhibition (trypsin) (TTLE biosynthesis): 15 ± 1.3% | Weight Gain [1]: 153 mg | Weight mg ± S.E.M. End [1]: 188 ± 12 mg | Weight mg ± S.E.M. Start [1]: 34.6 ± 2 mg | Number of Dead Larvae [2]: 1 | Weight ± S.E.M. [2]: 152 ± 27 mg | Weight Reduction ± S.E.M. [2]: 7 ± 1%

ADPAP [21. ADPAP, ADPAP]
LD50 + S.E.M. (Aedes aegypti larvae): 2.0 ± 0.36 mM

C[C@H](N)C(=O)N[C@@H](C)C(=O)N1CCC[C@H]1C(=O)O [29. AAP, AAP] (H-Ala-Ala-Pro-OH; N-terminus and C-terminus assumed)
LD50 + S.E.M. (Aedes aegypti larvae): 1.08 ± 0.07 mM

N[C@@H](Cc1ccc(O)cc1)C(=O)N[C@@H](CC(=O)O)C(=O)O [41. YD, YD] (H-Tyr-Asp-OH; N-terminus and C-terminus assumed)
LD50 + S.E.M. (Aedes aegypti larvae): 1.24 ± 0.06 mM

N[C@H](Cc1ccc(O)cc1)C(=O)N[C@@H](CC(=O)O)C(=O)N1CCC[C@H]1C(=O)O [24. (D)YDP, (D)YDP] (H-[dY]-Asp-Pro-OH; N-terminus and C-terminus assumed)
LD50 + S.E.M. (Aedes aegypti larvae): 0.51 ± 0.05 mM

C[C@H](NC(=O)[C@@H]1CCCN1)C(=O)N1CCC[C@H]1C(=O)O [38. PAP, PAP] (H-Pro-Ala-Pro-OH; N-terminus and C-terminus assumed)
LD50 + S.E.M. (Aedes aegypti larvae): 3.17 ± 0.14 mM

YDPGP [16. YDPGP, YDPGP]
Trypsin (TTLE biosynthesis): 2.1 ± 0.1 | Inhibition (trypsin) (TTLE biosynthesis): 17 ± 1% | LD50 + S.E.M. (Aedes aegypti larvae): 1.1 ± 0.18 mM | Weight Gain [1]: 163.1 mg | Weight mg ± S.E.M. End [1]: 199.8 ± 11 mg | Weight mg ± S.E.M. Start [1]: 31.7 ± 1.6 mg | Number of Dead Larvae [2]: 2 | Weight ± S.E.M. [2]: 153 ± 10 mg | Weight Reduction ± S.E.M. [2]: 6 ± 0.4%

C[C@H](NC(=O)[C@H](C)NC(=O)[C@@H](N)CC(=O)O)C(=O)O [25. DAA, DAA] (H-Asp-Ala-Ala-OH; N-terminus and C-terminus assumed)
LD50 + S.E.M. (Aedes aegypti larvae): 0.91 ± 0.06 mM

N[C@@H](Cc1ccc(O)cc1)C(=O)N[C@H](CC(=O)O)C(=O)N1CCC[C@H]1C(=O)O [22. Y(D)DP, Y(D)DP] (H-Tyr-[dD]-Pro-OH; N-terminus and C-terminus assumed)
LD50 + S.E.M. (Aedes aegypti larvae): 0.28 ± 0.01 mM

C[C@H](NC(=O)[C@H](C)NC(=O)[C@@H]1CCCN1)C(=O)O [37. PAA, PAA] (H-Pro-Ala-Ala-OH; N-terminus and C-terminus assumed)
LD50 + S.E.M. (Aedes aegypti larvae): 2.4 ± 0.34 mM

N[C@@H](Cc1ccc(O)cc1)C(=O)N[C@@H](CC(=O)O)C(=O)N[C@@H](Cc1ccccc1)C(=O)O [27. YDF, YDF] (H-Tyr-Asp-Phe-OH; N-terminus and C-terminus assumed)
LD50 + S.E.M. (Aedes aegypti larvae): 0.97 ± 0.11 mM

N[C@@H](CC(=O)O)C(=O)N[C@@H](Cc1ccc(O)cc1)C(=O)N1CCC[C@H]1C(=O)O [31. DYP, DYP] (H-Asp-Tyr-Pro-OH; N-terminus and C-terminus assumed)
Trypsin (TTLE biosynthesis): 2.2 ± 0.3 | Inhibition (trypsin) (TTLE biosynthesis): 14 ± 1.8% | LD50 + S.E.M. (Aedes aegypti larvae): 1.27 ± 0.17 mM | Weight Gain [1]: 180.5 mg | Weight mg ± S.E.M. End [1]: 216.7 ± 13 mg | Weight mg ± S.E.M. Start [1]: 36.2 ± 2.4 mg | Number of Dead Larvae [2]: 1 | Weight ± S.E.M. [2]: 149 ± 9 mg | Weight Reduction ± S.E.M. [2]: 9 ± 0.5%

N[C@@H](Cc1ccc(O)cc1)C(=O)N[C@@H](CC(=O)O)C(=O)NCC(=O)O [26. YDG, YDG] (H-Tyr-Asp-Gly-OH; N-terminus and C-terminus assumed)
LD50 + S.E.M. (Aedes aegypti larvae): 0.95 ± 0.11 mM

MPDYPPPPP [2. MPDYP5, MPDYP5]
LD50 + S.E.M. (Aedes aegypti larvae): >3.0 mM

C[C@H](NC(=O)[C@H](CC(=O)O)NC(=O)[C@@H](N)Cc1ccc(O)cc1)C(=O)O [32. YDA, YDA] (H-Tyr-Asp-Ala-OH; N-terminus and C-terminus assumed)
LD50 + S.E.M. (Aedes aegypti larvae): 1.6 ± 0.13 mM

YDPAA [19. YDPAA, YDPAA]
LD50 + S.E.M. (Aedes aegypti larvae): 1.6 ± 0.13 mM

C[C@H](NC(=O)[C@@H](N)Cc1ccccc1)C(=O)N1CCC[C@H]1C(=O)O [39. FAP, FAP] (H-Phe-Ala-Pro-OH; N-terminus and C-terminus assumed)
LD50 + S.E.M. (Aedes aegypti larvae): 3.8 ± 0.23 mM

YEPAP [4. YEPAP, YEPAP]
LD50 + S.E.M. (Aedes aegypti larvae): 0.35 ± 0.02 mM

YDAAP [15. YDAAP, YDAAP]
Trypsin (TTLE biosynthesis): 2.1 ± 0.2 | Inhibition (trypsin) (TTLE biosynthesis): 17 ± 1.6% | LD50 + S.E.M. (Aedes aegypti larvae): 1.0 ± 0.18 mM | Weight Gain [1]: 179 mg | Weight mg ± S.E.M. End [1]: 217 ± 9.5 mg | Weight mg ± S.E.M. Start [1]: 38.2 ± 1.3 mg | Number of Dead Larvae [2]: 0 | Weight ± S.E.M. [2]: 133 ± 7 mg | Weight Reduction ± S.E.M. [2]: 18 ± 1%

YDPLP [6. YDPLP, YDPLP]
LD50 + S.E.M. (Aedes aegypti larvae): 0.5 ± 0.04 mM

ADAAP (()..() TMOF analog) [ADAAP(12)]
Trypsin (TTLE biosynthesis): 2.4 ± 0.3 | Inhibition (trypsin) (TTLE biosynthesis): 5 ± 0.6% | Weight Gain [1]: 174.1 mg | Weight mg ± S.E.M. End [1]: 209.7 ± 12 mg | Weight mg ± S.E.M. Start [1]: 35.7 ± 1.5 mg | Number of Dead Larvae [2]: 0 | Weight ± S.E.M. [2]: 141 ± 9 mg | Weight Reduction ± S.E.M. [2]: 7 ± 0.4%

YDPFP [20. YDPFP, YDPFP]
LD50 + S.E.M. (Aedes aegypti larvae): 1.7 ± 0.4 mM

C[C@H](N)C(=O)N1CCC[C@H]1C(=O)N[C@@H](C)C(=O)O [28. APA, APA] (H-Ala-Pro-Ala-OH; N-terminus and C-terminus assumed)
LD50 + S.E.M. (Aedes aegypti larvae): 1.0 ± 0.07 mM

YFPAP [11. YFPAP, YFPAP]
LD50 + S.E.M. (Aedes aegypti larvae): 0.64 ± 0.03 mM

YDPAPPPPPP [1. YDPAP6, YDPAP6, reference compound]
LD50 + S.E.M. (Aedes aegypti larvae): 0.2 ± 0.02 mM
